Test results published in US20230348495A1, “A COMPOUND HAVING INHIBITORY ACTIVITY AGAINST KRAS G12D MUTATION” (TAIHO PHARMACEUTICAL CO., LTD., priority 2019, published 2023).

Legend:
KRAS G12D = KRAS G12D (Homo sapiens (Human), UniProt P01116, G12D); assay: Inhibitory activity on KRAS G12D nucleotide (GDP-GTP) exchange reaction in vitro (SOS1-dependent, BODIPY FL GDP); type: biochemical; details: BODIPY FL GDP-bound KRAS G12D, compound 25° C. 1 hour, then SOS1 and GMPPNP 30 minutes
Source text: Test Example 1: Evaluation of inhibitory activity of compounds on KRAS G12D nucleotide (GDP-GTP) exchange reaction in vitro
Recombinant KRAS G12D (conjugated N-terminus His6-tag, TEV protease cleavage site and KRAS G12D residues 1-169 (SEQ ID NO: 1), prepared by the method described as below) and cleaved recombinant SOS1 (residues 564-1049(SEQ ID NO: 2), prepared by the method as below) proteins were expressed in E. coli and purified by affinity chromatography.
To prepare the recombinant KRAS G12D, the codon-optimized DNA sequence for the recombinant KRAS G12D (conjugated N-terminus His6-tag, TEV protease cleavage site and KRAS G12D residues 1-169 (SEQ ID NO: 3))was synthesized by GeneArt Technology (Life Technologies, Carlsbad, CA, US). The construct was subcloned into the expression vector pET28a and transformed into Escherichia coli BL21 (DE3) strains (Novagen, Madison, WI, US).
The transformed strain was cultivated in 2 L Luria Broth medium with 25 μg/mL kanamycin at a temperature of 37° C. to a density of 0.6 (OD600), then induced for expression with […] IPTG and further cultivated for 4 h. The cell pellet was resuspended in ice-cold lysis buffer containing 50 mM Tris-HCl (pH 7.5), 200 mM NaCl, and 100 μM TCEP (tris(2-carboxyethyl)phosphine).
After sonication, the disrupted debris was removed by centrifugation. The supernatant was applied on to Ni-NTA affinity gels, and the recombinant human KRAS (G12D) eluted fraction was collected. The buffer of the collected fraction was exchanged to the buffer containing 50 mM Tris-HCl (pH 7.5), 200 mM NaCl, 10% Glycerol, and 5 mM DTT by PD-10 column (GE-Healthcare, Chicago, IL, US).
To prepare the cleaved recombinant SOS1, the codon optimized DNA sequences for the recombinant SOS1 (residues 564-1049 with a conjugated N-terminus His6-tag and TEV protease cleavage site (SEQ ID NO: 4)) was synthesized by GeneArt Technology (Life Technologies). The construct was subcloned into the expression vector pET28a and transformed into Escherichia coli BL21 (DE3) strains (Novagen, Madison, WI, USA).
The transformed strain was cultivated in 2 L Terrific Broth medium with 25 μg/mL kanamycin at a temperature of 37° C. to a density of 0.8 (OD600), then shifted to a temperature of 16° C., induced for expression with […] IPTG, and further cultivated for 16 h. The cell pellet was resuspended in ice-cold lysis buffer containing 50 mM Tris-HCl (pH 7.5), 200 mM NaCl, and 100 μM TCEP.
After sonication, the disrupted debris was removed by centrifugation. The supernatant was applied on to Ni-NTA affinity gels, and the recombinant human SOS1 eluted fraction was collected. Then, His6-tagged TEV protease was added to the collected fraction, dialyzed with the ice-cold lysis buffer for 16 h at a temperature of 4° C., and applied on to Ni-NTA affinity gels. The flow-through fraction containing the tag-cleavaged recombinant human SOS1 was collected. The buffer of the collected fraction was exchanged to the buffer containing 50 mM Tris-HCl (pH 7.5), 200 mM NaCl, 10% Glycerol, and 5 mM DTT by PD-10 column (GE-Healthcare).
To prepare BODIPY FL (fluorescent dye) GDP-bound KRAS G12D protein, 50 μM KRAS G12D protein was incubated with 0.5 mM BODIPY FL GDP in a loading buffer (20 mM Tris-HCl (pH 7.5), 50 mM NaCl, 1 mM DTT and 2.5 mM EDTA) for 1 hour on ice. After the incubation, MgCl2 was added to a final concentration of 10 mM, followed by incubation at room temperature for 30 minutes.
The mixture was allowed to pass through a NAP-5 column to remove free nucleotides and purified BODIPY FL GDP-bound KRAS G12D protein was used for compound evaluation.
For the measurement of the inhibitory activity of compounds on GDP-GTP exchange rate of recombinant KRAS G12D, BODIPY FL GDP-bound KRAS G12D protein was incubated with various concentrations of compound in a reaction buffer (20 mM Tris-HCl (pH 7.5), 100 mM NaCl, 1 mM MgCl2, 2 mM DTT, 0.1% Tween 20) at 25° C. for 1 hour. […]

[1] = test system: KRAS-G12D mutant cell line (A-427); assay: Growth inhibition activity on KRAS-G12D mutant cell line (A-427), CellTiter-Glo 3D; type: cell-based; details: Homo sapiens, 72 h, A-427 cells, 3-day culture with compound, read-out: A427 CTX IC50
Protocol: Test Example 2: A measurement test of growth inhibition activity on KRAS-G12D mutant cell line (A-427) (in vitro) A-427 cells (ATCC, Cat #: HTB-53), which are a KRAS-G12D mutant human lung cancer cell line, were suspended in a 10% fetal bovine serum-containing E-MEM medium (manufactured by Fujifilm Wako Pure Chemical Corporation). The cell suspension was seeded into each well of a 384-well U bottom microplate and cultured in an incubator containing 5% CO2 gas at 37° C. for 1 day.
The compound of the present invention was dissolved in DMSO, and the test compound was diluted with DMSO to give a concentration 500 times the final concentration. The solution of the test compound in DMSO was diluted with the medium used for suspending cells and added to each well of the cell-culture plate to give a DMSO final concentration of 0.2%, followed by culture in an incubator containing 5% CO2 gas at 37° C. for another 3 days. The cell count after a 3-day culture in the presence of the compound was measured using CellTiter-Glo 3D Reagent (manufactured by Promega Corporation).
All wells were added with CellTiter-Glo 3D Reagent and mixed for 10 minutes. 30 minutes after mixing, luminescence was measured by a plate reader. The growth inhibition rate was calculated from the following equation, and the concentration of the test compound at which 50% inhibition was achieved (IC50 (μM)) was determined.
Growth Inhibition Rate(%)=(C−T)/(C)×100
T: the emission intensity in a well into which a test compound was added.
C: the emission intensity in a well into which a test compound was not added.

KRAS G12D, sequence (P01116 other isoform, or with tags, fused parts or gaps G12D (already in the parent)): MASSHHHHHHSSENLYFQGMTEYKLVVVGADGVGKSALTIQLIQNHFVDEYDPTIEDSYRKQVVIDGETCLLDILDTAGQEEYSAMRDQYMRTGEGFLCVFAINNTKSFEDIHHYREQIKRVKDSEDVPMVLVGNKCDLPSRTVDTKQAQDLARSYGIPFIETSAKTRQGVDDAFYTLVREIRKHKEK

SMILES | IC50 (KRAS G12D) [nM] | IC50 [1] [nM]
CN(C)CC1(COc2nc3c(c(N4CC5CCC(C4)N5)n2)CCN(c2cc(O)cc4cccc(Br)c24)C3)CC1(C)C (stereo not shown) [Example 30, 4-(4-(3,8-diazabicyclo[3.2.1]octan-3-yl)-2-((1-((dimethylamino)methyl)-2,2-dimethylcyclopropyl)methoxy)-5,8-dihydropyrido[3,4-d]pyrimidin-7(6H)-yl)-5-bromonaphthalen-2-ol] | 11.7 | 1380
CN1CCC[C@H]1COc1nc2c(c(N3CC4CCC(C3)N4)n1)CCN(c1cc(O)cc3cccc(Br)c13)C2 [Example 31, 4-(4-(3,8-diazabicyclo[3.2.1]octan-3-yl)-2-(((S)-1-methylpyrrolidin-2-yl)methoxy)-5,8-dihydropyrido[3,4-d]pyrimidin-7(6H)-yl)-5-bromonaphthalen-2-ol] | 17.7 | 1950
CO[C@@H]1C[C@@H](COc2nc3c(c(N4CC5CCC(C4)N5)n2)CCN(c2cc(O)cc4cccc(Br)c24)C3)N(C)C1 [Example 32, 4-(4-(3,8-diazabicyclo[3.2.1]octan-3-yl)-2-(((2S,4R)-4-methoxy-1-methylpyrrolidin-2-yl)methoxy)-5,8-dihydropyrido[3,4-d]pyrimidin-7(6H)-yl)-5-bromonaphthalen-2-ol] | 3.2 | 1080
C#Cc1cccc2cc(O)cc(C3Cc4nc(OCC5(CN6CCOCC6)CC5)nc(N5CC6CCC(C5)N6)c4CO3)c12 (stereo not shown) [Example 33, 4-(4-(3,8-diazabicyclo[3.2.1]octan-3-yl)-2-((1-(morpholinomethyl)cyclopropyl)methoxy)-7,8-dihydro-5H-pyrano[4,3-d]pyrimidin-7-yl)-5-ethynylnaphthalen-2-ol] | 11.3 | 1270
C=Cc1cccc2cc(O)cc(C(=O)N3Cc4nc(OCC5(CN6CC[C@@H](F)C6)CC5)nc(N5CC6CCC(C5)N6)c4C3)c12 [Example 34, (4-(3,8-diazabicyclo[3.2.1]octan-3-yl)-2-((1-(((R)-3-fluoropyrrolidin-1-yl)methyl)cyclopropyl)methoxy)-5,7-dihydro-6H-pyrrolo[3,4-d]pyrimidin-6-yl) (3-hydroxy-8-vinylnaphthalen-1-yl)methanone] | 14.1 | 7140
C=Cc1cccc2cc(O)cc(C(=O)N3Cc4nc(OCC5(CN6CCOCC6)CC5)nc(N5CC6CCC(C5)N6)c4C3)c12 [Example 35, (4-(3,8-diazabicyclo[3.2.1]octan-3-yl)-2-((1-(morpholinomethyl)cyclopropyl)methoxy)-5,7-dihydro-6H-pyrrolo[3,4-d]pyrimidin-6-yl) (3-hydroxy-8-vinylnaphthalen-1-yl) methanone] | 13.5 | 8840
C#Cc1cccc2cc(N)nc(N3CCc4c(nc(OCC5(CN(C)C)CC5)nc4N4CC5CCC(C4)N5)C3)c12 [Example 36, 1-(4-(3,8-diazabicyclo[3.2.1]octan-3-yl)-2-((1-((dimethylamino)methyl)cyclopropyl)methoxy)-5,8-dihydropyrido[3,4-d]pyrimidin-7(6H)-yl)-8-ethynylisoquinolin-3-amine] | 27.4 | > 10000
CN(C)CC1(COc2nc3c(c(N4CC5CCC(C4)N5)n2)COC(c2cc(O)cc4cccc(Br)c24)C3)CC1 (stereo not shown) [Example 37, 4-(4-(3,8-diazabicyclo[3.2.1]octan-3-yl)-2-((1-((dimethylamino)methyl)cyclopropyl)methoxy)-7,8-dihydro-5H-pyrano[4,3-d]pyrimidin-7-yl)-5-bromonaphthalen-2-ol] | 9.6 | 2940
